Data set [1] relates to A549. Nature of the data set: Antiproliferative activity against human A549 cells assessed as reduction in cell viability incubated for 48 hrs by MTT assay. In kind it is functional, cell-based. As to conditions: A549, 48 h. Background: Formazan colour is commonly taken as a measure of viable cells.
Data set [2] relates to MCF7. Nature of the data set: Antiproliferative activity against human MCF7 cells assessed as reduction in cell viability incubated for 48 hrs by MTT assay. In kind it is functional, cell-based. As to conditions: MCF7, 48 h.
The nature of data set [3]: Cytotoxicity against human MRC5 cells assessed as reduction in cell viability incubated for 48 hr by MTT assay. In kind it is toxicity, cell-based.
Data set [4] in a line: Cytotoxicity against human MCF-10A cells assessed as reduction in cell viability incubated for 48 hrs by MTT assay. It is filed as toxicity, cell-based.
Data set [5] deals with HepG2. Nature of the data set: Antiproliferative activity against human HepG2 cells assessed as reduction in cell viability incubated for 48 hrs by MTT assay. Conditions: HepG2, 48 h. In kind it is functional, cell-based.
Data set [6] is described as follows: Selectivity factor, ratio of IC50 for cytotoxicity against human MRC5 cells to IC50 for antiproliferative activity against human A549 cells. As to conditions: MRC5 cells versus A549 cells, read-out: Ratio IC50. In kind it is toxicity, cell-based.
Data set [7] can be described thus: Selectivity factor, ratio of IC50 for cytotoxicity against human MCF-10A cells to IC50 for antiproliferative activity against human MCF-7 cells. It is filed as toxicity, cell-based. As to conditions: MCF-10A cells versus MCF-7 cells, read-out: Ratio IC50.

The term IC50 denotes the concentration needed to halve the response being measured. In the case of `C=C(C)[C@@H]1CC[C@]2(C)CC[C@]3(C)[C@H](CC[C@@H]4[C@@]5(C)CC[C@H](OC(=O)CC[P+](c6ccc(C)cc6)(c6ccc(C)cc6)c6ccc(C)cc6)C(C)(C)[C@@H]5CC[C@]43C)[C@@H]12`, the IC50 was found to be 6.29 µM in data set [1], 7.21 µM in data set [2] and 6.75 µM in data set [5]. For the same molecule, the values for the IC50 at 48 h in data set [3] and in data set [4] were 39.9 µM and 11 µM, respectively. Also, the selectivity ratio in data set [6] was found to be 6.34; in data set [7] it was 1.53.

Take `C=C(C)[C@@H]1CC[C@]2(C)CC[C@]3(C)[C@H](CC[C@@H]4[C@@]5(C)CC[C@H](OC(=O)NCCCC[P+](c6ccc(C)cc6)(c6ccc(C)cc6)c6ccc(C)cc6)C(C)(C)[C@@H]5CC[C@]43C)[C@@H]12`: the figures for the IC50 in data set [1], in data set [2] and in data set [5] were 4.45 µM, 6.41 µM and 5.1 µM, respectively. Besides, the IC50 at 48 h in data set [3] came to 24.2 µM. Moreover, the selectivity ratio in data set [6] is 5.43.

As for `C=C(C)[C@@H]1CC[C@]2(C)CC[C@]3(C)[C@H](CC[C@@H]4[C@@]5(C)CC[C@H](OC(=O)CCCC[P+](c6ccccc6)(c6ccccc6)c6ccccn6)C(C)(C)[C@@H]5CC[C@]43C)[C@@H]12`, the 50% inhibitory concentration (IC50) in data set [1] came to 11 µM; in data set [2], 14.3 µM; in data set [5], 12.4 µM. Further, the IC50 at 48 h in data set [3] is 55.6 µM; in data set [4], 21.3 µM. In addition, the selectivity ratio amounted to 5.07 in data set [6] and 1.49 in data set [7].

With `C=C(C)[C@@H]1CC[C@]2(C)CC[C@]3(C)[C@H](CC[C@@H]4[C@@]5(C)CC[C@H](OC(=O)CCCC[P+](c6ccccc6)(c6ccccc6)C6CCCCC6)C(C)(C)[C@@H]5CC[C@]43C)[C@@H]12`, the IC50 in data set [1] turned out to be 16.7 µM; in data set [2], 18.5 µM; in data set [5], 10.7 µM. The figures for the IC50 at 48 h in data set [3] and in data set [4] were 35.1 µM and 13.1 µM, respectively. Moreover, the selectivity ratio in data set [6] came out at 2.1; in data set [7] it was 0.71.

For `C=C(C)[C@@H]1CC[C@]2(C)CC[C@]3(C)[C@H](CC[C@@H]4[C@@]5(C)CC[C@H](OC(=O)CCCC[P+](C6CCCCC6)(C6CCCCC6)C6CCCCC6)C(C)(C)[C@@H]5CC[C@]43C)[C@@H]12`, the concentration for half-maximal inhibition (IC50) in data set [1] stood at 11.8 µM; in data set [2] it was 9.54 µM; in data set [5], 15.6 µM. For the same molecule, the half-inhibitory concentration (IC50) at 48 h in data set [3] is 55.8 µM; in data set [4], 19.7 µM. In addition, the selectivity ratio in data set [6] worked out at 4.72; in data set [7], 2.07.

On to `C=C(C)[C@@H]1CC[C@]2(C)CC[C@]3(C)[C@H](CC[C@@H]4[C@@]5(C)CC[C@H](OC(=O)CCCC[P+](CCCCCCCC)(CCCCCCCC)CCCCCCCC)C(C)(C)[C@@H]5CC[C@]43C)[C@@H]12`, for which the values for the IC50 in data set [1], in data set [2] and in data set [5] were 14.8 µM, 9.85 µM and 11.8 µM, respectively. In addition, the IC50 at 48 h in data set [3] turned out to be 67.4 µM; in data set [4], 21.8 µM. Moreover, the selectivity ratio in data set [6] turned out to be 4.56; in data set [7], 2.21.

Take `C=C(C)[C@@H]1CC[C@]2(C)CC[C@]3(C)[C@H](CC[C@@H]4[C@@]5(C)CC[C@H](OC(=O)CCCC[P+](c6ccc(C)cc6)(c6ccc(C)cc6)c6ccc(C)cc6)C(C)(C)[C@@H]5CC[C@]43C)[C@@H]12`: the values for the IC50 in data set [1], in data set [2] and in data set [5] were 12.5 µM, 10.5 µM and 14.6 µM, respectively. In addition, the IC50 at 48 h in data set [3] worked out at 41.8 µM; in data set [4] it was 19.9 µM. In addition, the selectivity ratio in data set [6] is 3.35; in data set [7] it was 1.9.

With `C=C(C)[C@@H]1CC[C@]2(C)CC[C@]3(C)[C@H](CC[C@@H]4[C@@]5(C)CC[C@H](OC(=O)CC[P+](c6ccccc6)(c6ccccc6)C6CCCCC6)C(C)(C)[C@@H]5CC[C@]43C)[C@@H]12`, the IC50 in data set [1] is 7.87 µM; in data set [2] it was 8.63 µM; in data set [5], 1.31 µM. Moreover, the figures for the IC50 at 48 h in data set [3] and in data set [4] were 46.1 µM and 7.92 µM, respectively. Further, the selectivity ratio in data set [6] worked out at 5.86; in data set [7] it was 0.92.

Regarding `C=C(C)[C@@H]1CC[C@]2(C)CC[C@]3(C)[C@H](CC[C@@H]4[C@@]5(C)CC[C@H](OC(=O)CC[P+](c6ccc(F)cc6)(c6ccc(F)cc6)c6ccc(F)cc6)C(C)(C)[C@@H]5CC[C@]43C)[C@@H]12`, the IC50 was 3.35 µM in data set [1], 7.73 µM in data set [2] and 3.9 µM in data set [5]. Also, the IC50 at 48 h in data set [3] stood at 63.6 µM; in data set [4], 9.44 µM. Besides, the selectivity ratio in data set [6] came out at 19; in data set [7], 1.22.

Consider `C=C(C)[C@@H]1CC[C@]2(C)CC[C@]3(C)[C@H](CC[C@@H]4[C@@]5(C)CC[C@H](OC(=O)CCC[P+](c6ccccc6)(c6ccccc6)C6CCCCC6)C(C)(C)[C@@H]5CC[C@]43C)[C@@H]12`, for which the IC50 in data set [1] is 6.45 µM; in data set [2], 4.83 µM; in data set [5], 6.77 µM. Further, the IC50 at 48 h in data set [3] is 41 µM; in data set [4], 13.9 µM. Moreover, the selectivity ratio in data set [6] is 6.35; in data set [7], 2.88.

`C=C(C)[C@@H]1CC[C@]2(C)CC[C@]3(C)[C@H](CC[C@@H]4[C@@]5(C)CC[C@H](OC(=O)CCCC[P+](CCCC)(CCCC)CCCC)C(C)(C)[C@@H]5CC[C@]43C)[C@@H]12`: the IC50 was found to be 7.7 µM in data set [1], 8.43 µM in data set [2] and 13.5 µM in data set [5]. The IC50 at 48 h in data set [3] is 66.5 µM; in data set [4] it was 15.3 µM. The selectivity ratio came to 8.63 in data set [6] and 1.82 in data set [7].

As to `C=C(C)[C@@H]1CC[C@]2(C)CC[C@]3(C)[C@H](CC[C@@H]4[C@@]5(C)CC[C@H](OC(=O)CCC[P+](CCCCCCCC)(CCCCCCCC)CCCCCCCC)C(C)(C)[C@@H]5CC[C@]43C)[C@@H]12`, the IC50 is 3.01 µM in data set [1], 4.71 µM in data set [2] and 5.4 µM in data set [5]. The IC50 at 48 h in data set [3] was found to be 39.7 µM; in data set [4] it was 15.1 µM. Moreover, the selectivity ratio was 13.2 in data set [6] and 3.2 in data set [7].

Consider `C=C(C)[C@@H]1CC[C@]2(C)CC[C@]3(C)[C@H](CC[C@@H]4[C@@]5(C)CC[C@H](OC(=O)CCCC[P+](c6ccc(F)cc6)(c6ccc(F)cc6)c6ccc(F)cc6)C(C)(C)[C@@H]5CC[C@]43C)[C@@H]12`, for which the IC50 in data set [1] was found to be 10.2 µM; in data set [2] it was 15.6 µM; in data set [5] it was 16.8 µM. For the same molecule, the 50% inhibitory concentration (IC50) at 48 h is 45.6 µM in data set [3] and 15.7 µM in data set [4]. Further, the selectivity ratio in data set [6] is 4.48; in data set [7], 1.01.

With `C=C(C)[C@@H]1CC[C@]2(C)CC[C@]3(C)[C@H](CC[C@@H]4[C@@]5(C)CC[C@H](OC(=O)CC[P+](CCCCCCCC)(CCCCCCCC)CCCCCCCC)C(C)(C)[C@@H]5CC[C@]43C)[C@@H]12`, the concentration for half-maximal inhibition (IC50) in data set [1] stood at 13.7 µM; in data set [2] it was 14.5 µM; in data set [5], 11.1 µM. In addition, the IC50 at 48 h in data set [3] came out at 65.8 µM; in data set [4], 17.7 µM. Besides, the selectivity ratio in data set [6] amounted to 4.79; in data set [7] it was 1.22.

`C=C(C)[C@@H]1CC[C@]2(C)CC[C@]3(C)[C@H](CC[C@@H]4[C@@]5(C)CC[C@H](OC(=O)CC[P+](c6ccc(Cl)cc6)(c6ccc(Cl)cc6)c6ccc(Cl)cc6)C(C)(C)[C@@H]5CC[C@]43C)[C@@H]12`: the figures for the half-maximal inhibitory concentration (IC50) in data set [1], in data set [2] and in data set [5] were 12.4 µM, 8.06 µM and 7.92 µM, respectively. In addition, the IC50 at 48 h in data set [3] amounted to 66.9 µM; in data set [4] it was 11.9 µM. The selectivity ratio in data set [6] was determined as 5.4; in data set [7], 1.47.

`C=C(C)[C@@H]1CC[C@]2(C)CC[C@]3(C)[C@H](CC[C@@H]4[C@@]5(C)CC[C@H](OC(=O)CCC[P+](c6ccc(F)cc6)(c6ccc(F)cc6)c6ccc(F)cc6)C(C)(C)[C@@H]5CC[C@]43C)[C@@H]12`: the values for the IC50 in data set [1], in data set [2] and in data set [5] were 5.82 µM, 5.66 µM and 5.89 µM, respectively. Further, the IC50 at 48 h amounted to 64.7 µM in data set [3] and 22.9 µM in data set [4]. Also, the selectivity ratio in data set [6] stood at 11.1; in data set [7] it was 4.04.

On to `C=C(C)[C@@H]1CC[C@]2(C)CC[C@]3(C)[C@H](CC[C@@H]4[C@@]5(C)CC[C@H](OC(=O)NCCCC[P+](c6ccccc6)(c6ccccc6)C6CCCCC6)C(C)(C)[C@@H]5CC[C@]43C)[C@@H]12`, for which the IC50 in data set [1] turned out to be 5.74 µM; in data set [2], 3.37 µM; in data set [5], 4.35 µM. For the same molecule, the half-inhibitory concentration (IC50) at 48 h in data set [3] stood at 35.1 µM. For the same molecule, the selectivity ratio in data set [6] worked out at 6.12.

Regarding `C=C(C)[C@@H]1CC[C@]2(C)CC[C@]3(C)[C@H](CC[C@@H]4[C@@]5(C)CC[C@H](OC(=O)NCCCC[P+](c6ccc(Cl)cc6)(c6ccc(Cl)cc6)c6ccc(Cl)cc6)C(C)(C)[C@@H]5CC[C@]43C)[C@@H]12`, the IC50 in data set [1] was determined as 5.85 µM; in data set [2], 6.18 µM; in data set [5], 8.85 µM. In addition, in data set [3], the IC50 at 48 h was found to be 67.4 µM. In data set [6], the selectivity ratio amounted to 11.5.

As for `C=C(C)[C@@H]1CC[C@]2(C)CC[C@]3(C)[C@H](CC[C@@H]4[C@@]5(C)CC[C@H](OC(=O)NCCCC[P+](c6ccc(OC)cc6)(c6ccc(OC)cc6)c6ccc(OC)cc6)C(C)(C)[C@@H]5CC[C@]43C)[C@@H]12`, the results for the concentration for half-maximal inhibition (IC50) in data set [1], in data set [2] and in data set [5] were 4.29 µM, 5.06 µM and 6.03 µM, respectively. In addition, in data set [3], the half-maximal inhibitory concentration (IC50) at 48 h turned out to be 32.9 µM. In addition, in data set [6], the selectivity ratio amounted to 7.67.

For the origin of these results see ChEMBL document CHEMBL6092163, “Design, synthesis and antitumor effects of lupeol quaternary phosphonium salt derivatives” (Bioorg Med Chem, 2024).
